Measured values published in patent publication US8394809B2, “Phenoxy-substituted pyrimidines as opioid receptor modulators” (priority 2009, dated 2013).
Like-named read-outs stand apart in the source and are kept apart here.

Assays:
delta opioid receptor [1] = target: T1, delta opioid receptor (Mus musculus, UniProt P32300); assay: [35S]GTPγS binding assay in NG108-15 cell membranes (delta opioid functional assay); format: biochemical; conditions: for GTPγS δ-Rel Efficacy @200 nM: 200 nM compound, relative to calculated max of SNC80 dose response
T1 construct: NG108-15 cell membranes were purchased from Applied Cell Sciences (Rockville, Md.); host or cells: NG108-15 cell membranes (purchased)
Procedure: Methods: NG108-15 cell membranes were purchased from Applied Cell Sciences (Rockville, Md.). 5 mg/mL of membrane protein was suspended in 10 mM TRIS-HCl pH 7.2, 2 mM EDTA, 10% sucrose. Membranes were maintained at 4-8° C. A 1 mL volume of membranes was added into 10 mL cold binding assay buffer. The assay buffer contained 50 mM Tris, pH 7.6, 5 mM MgCl2, 100 mM NaCl, 1 mM DTT and 1 mM EGTA. The membrane suspension was homogenized twice with a Polytron, and centrifuged at 3000 rpm for 10 min. The supernatant was then centrifuged at 18,000 rpm for 20 min. Ten mL assay buffer was added into the pellet containing tube. The pellet and buffer were mixed with a Polytron.
Incubation procedure: The pellet membranes (75 μg/mL) were preincubated with SPA (10 mg/mL) at 25° C. for 45 min in the assay buffer. […] 200 nM of receptor agonists was used to stimulate [^35S]-GTPγS binding. The basal binding was tested in the absence of agonists and non-specific binding was tested in the presence of 10 μM unlabeled GTPγS.
Data % of Basal=(stimulated−non specific)*100/(basal−non specific). Relative Efficacy of a compound at 200 nM=(% of Basal of test compound at 200 nM)/(Calculated Max of SNC80 dose response. Curve in prism).

delta opioid receptor [2] = target: T2, delta opioid receptor (Rattus norvegicus, UniProt P33533); assay: Rat brain delta opioid receptor binding assay; conditions: rat forebrain membranes
T2 construct: the forebrains were homogenized in Tris buffer in a Teflon®-glass homogenizer; from tissue; host or cells: forebrain of male Wistar rats, particulate membrane preparation
Procedure: (§1) Procedure: Male, Wistar rats (150-250 g, VAF, Charles River, Kingston, N.Y.) were killed by CO2, and their brains were removed and placed immediately in ice cold Tris HCl buffer (50 mM, pH 7.4). The forebrains were separated from the remainder of the brain by a coronal transection, beginning dorsally at the colliculi and passing ventrally through the midbrain-pontine junction. After dissection, the forebrains were homogenized in Tris buffer in a Teflon®-glass homogenizer. The homogenate was diluted to a concentration of 1 g of forebrain tissue per 80 mL Tris and centrifuged at 39,000×g for 10 min. The pellet was resuspended in the same volume of Tris buffer containing 5 mM MgCl2 with several brief pulses from a Polytron homogenizer. This particulate preparation was used for the delta opioid binding assays. Following incubation with the delta selective peptide ligand ˜4 nM [^3H]DPDPE or 0.25 nM [^3H]naltrindole at 25° C. for 2.5 h in a 96-well plate with total volume of […], the plate contents were filtered through Wallac filtermat B sheets on a Tomtec 96-well harvester. […] To each sample area 2×50 μL of Betaplate Scint scintillation fluid (LKB) was added and the radioactivity was quantified on a LKB (Wallac) 1205 BetaPlate liquid scintillation counter.
(§2) Analysis: The data from the scintillation counter was used to calculate either the % inhibition compared to control binding (when only a single concentration of test compound was evaluated) or a Ki value (when a range of concentrations was tested). Percent inhibition was calculated as: [(total dpm−test compound dpm)/(total dpm-nonspecific dpm)]*100. Kd and Ki values were calculated using GraphPad PRISM data analysis program.

mu opioid receptor = target: T3, mu opioid receptor (Rattus norvegicus, UniProt P33535); assay: Rat brain mu opioid receptor binding assay; conditions: rat forebrain membranes, ~0.8 nM [3H]DAMGO; read-out: μ-binding Ki
T3 construct: the forebrains were homogenized in Tris buffer in a Teflon®-glass homogenizer; from tissue; host or cells: forebrain of male Wistar rats, particulate membrane preparation
Procedure: as §1, with “mu” for “delta”, “ligand, ˜0.8” for “ligand ˜4”, “[^3H]DAMGO,” for “[^3H]DPDPE or 0.25 nM [^3H]naltrindole”, “total assay” for “total”, “2×40” for “2×50”, “quantifed” for “quantified”
as §2

delta opioid receptor [3] = target: T1, delta opioid receptor; assay: [35S]GTPγS binding assay in NG108-15 cell membranes (delta opioid functional assay); format: biochemical; conditions: 10 μM
[4] = ~4 nM [3H]DPDPE, read-out: δ-binding (DPDPE ligand) Ki
[5] = 0.25 nM [3H]naltrindole, read-out: δ-binding (Naltrindole ligand) Ki

T1 sequence (P32300 whole entry): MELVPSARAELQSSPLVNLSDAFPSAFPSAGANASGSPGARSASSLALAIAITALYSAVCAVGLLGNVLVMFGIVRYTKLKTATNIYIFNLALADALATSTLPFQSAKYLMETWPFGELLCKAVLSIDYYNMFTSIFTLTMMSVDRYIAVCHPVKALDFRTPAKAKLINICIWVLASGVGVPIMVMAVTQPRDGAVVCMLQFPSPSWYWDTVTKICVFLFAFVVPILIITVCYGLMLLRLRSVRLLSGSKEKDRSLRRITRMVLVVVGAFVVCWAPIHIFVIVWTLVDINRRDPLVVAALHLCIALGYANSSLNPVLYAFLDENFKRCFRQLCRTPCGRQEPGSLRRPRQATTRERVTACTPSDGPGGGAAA
T2 sequence (P33533 whole entry): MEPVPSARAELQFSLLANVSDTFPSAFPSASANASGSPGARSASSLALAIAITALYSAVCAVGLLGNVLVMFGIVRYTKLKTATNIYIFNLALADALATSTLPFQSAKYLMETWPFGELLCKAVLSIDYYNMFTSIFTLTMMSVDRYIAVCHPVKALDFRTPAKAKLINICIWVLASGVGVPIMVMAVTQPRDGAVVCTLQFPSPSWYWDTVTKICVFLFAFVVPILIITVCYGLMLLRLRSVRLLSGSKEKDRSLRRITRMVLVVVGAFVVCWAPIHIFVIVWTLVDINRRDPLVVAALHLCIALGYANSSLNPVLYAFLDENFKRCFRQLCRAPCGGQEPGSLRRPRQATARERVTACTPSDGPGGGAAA
T3 sequence (P33535 whole entry): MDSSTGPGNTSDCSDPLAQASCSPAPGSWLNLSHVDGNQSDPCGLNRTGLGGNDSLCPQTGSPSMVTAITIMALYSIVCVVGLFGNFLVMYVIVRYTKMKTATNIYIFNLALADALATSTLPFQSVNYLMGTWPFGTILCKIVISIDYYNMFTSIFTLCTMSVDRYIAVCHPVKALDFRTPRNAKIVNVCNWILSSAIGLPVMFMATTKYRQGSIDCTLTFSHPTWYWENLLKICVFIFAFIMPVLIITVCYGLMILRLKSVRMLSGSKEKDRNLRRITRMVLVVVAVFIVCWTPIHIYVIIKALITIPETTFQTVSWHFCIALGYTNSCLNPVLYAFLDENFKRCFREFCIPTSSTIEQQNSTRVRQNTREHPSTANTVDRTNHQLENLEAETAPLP

SMILES	Ki (delta opioid receptor [2]; [4]) [µM]	Ki (mu opioid receptor) [µM]	Ki (delta opioid receptor [2]; [5]) [µM]	further results
COc1ccc(Oc2nc(Nc3cccnc3)ncc2NC[C@@H]2CCCN2)cc1 [Cpd 48]				GTPγS δ-Rel Efficacy @200 nM (delta opioid receptor [1]): 0.267
COc1ccc(Oc2nc([S+]([O-])c3ccc(OC)cc3)ncc2NC[C@@H]2CCCN2)cc1 (stereo partly drawn) [Cpd 20, [2-(4-Methoxybenzenesulfinyl)-4-(4-methoxyphenoxy)-pyrimidin-5-yl]-pyrrolidin-2-(S)-ylmethylamine]	0.274	> 10		
COc1ccc(Oc2ncc(NCc3ncc[nH]3)c(Oc3ccc(OC)cc3)n2)cc1 [Cpd 42]	3.81	> 10		
COc1ccc(Oc2ncc(NCc3ccncc3)c(Oc3ccc(OC)cc3)n2)cc1 [Cpd 39]		> 10	3.53	
COc1ccc(Oc2ncc(NC(C)c3ccncc3)c(Oc3ccc(OC)cc3)n2)cc1 (racemic) [Cpd 40]		> 10	4.37	
COc1ccc(Oc2nc(Nc3nccs3)ncc2NC[C@@H]2CCCN2)cc1 [Cpd 50]				GTPγS δ-Rel Efficacy @200 nM (delta opioid receptor [1]): 0.143
Fc1ccc(Oc2ncc(NCC3CCCN3)c(Oc3ccc(F)cc3)n2)cc1 (stereo not shown) [Cpd 24]	0.396	> 10		
COc1ccc(Oc2nc(Nc3cccc(F)c3)ncc2NC[C@@H]2CCCN2)cc1 [Cpd 49, N^2-(3-Fluoro-phenyl)-4-(4-methoxy-phenoxy)-N^5-pyrrolidin-2-(S)-ylmethyl-pyrimidine-2,5-diamine]				GTPγS δ-Rel Efficacy @200 nM (delta opioid receptor [1]): 0.216
COc1ccc(Oc2ncc(NC3CCN(C(C)=O)CC3)c(Oc3ccc(OC)cc3)n2)cc1 [Cpd 41]		> 10	5.33	
COc1ccc(Oc2ncc(NCC3CCCNC3)c(Oc3ccc(OC)cc3)n2)cc1 (racemic) [Cpd 15]		3.23	0.297	
COc1ccc(Oc2ncc(NC3CNCCC3c3ccccc3)c(Oc3ccc(OC)cc3)n2)cc1 (stereo not shown) [Cpd 35]	1.43	> 10		
COc1ccc(Oc2ncc(NCc3nccs3)c(Oc3ccc(OC)cc3)n2)cc1 [Cpd 43]	4.22	> 10		
COc1ccc(Oc2ncc(NC3CCNC3)c(Oc3ccc(OC)cc3)n2)cc1 (racemic) [Cpd 36]		> 10	2.14	
COc1ccc(Oc2nc(Oc3cccc(C#N)c3)ncc2NC[C@@H]2CCCN2)cc1 [Cpd 53]				GTPγS δ-opioid receptor Rel Efficacy (delta opioid receptor [1]): 1.033; GTPγS δ-Rel Efficacy @200 nM (delta opioid receptor [1]): 0.705; EC50 (delta opioid receptor [1]; read-out: GTPγS δ-opioid receptor EC50): 0.053 µM
COc1ccc(Oc2ncc(NCCC3CCCNC3)c(Oc3ccc(OC)cc3)n2)cc1 (racemic) [Cpd 34]	1.12	> 10		
COc1ccc(Oc2ncc(NCC3CCCCN3)c(Oc3ccc(OC)cc3)n2)cc1 (racemic) [Cpd 25]	0.489	2.51		
COc1ccc(Oc2ncc(NCC3CNCCO3)c(Oc3ccc(OC)cc3)n2)cc1 (racemic) [Cpd 31]	0.723	> 10		
COc1ccc(Oc2ncc(NCC3CCNCC3)c(Oc3ccc(OC)cc3)n2)cc1 [Cpd 17]		12.3	0.477	
COc1ccc(Oc2ncc(NC[C@@H](N)CO)c(Oc3ccc(OC)cc3)n2)cc1 [Cpd 10]		> 10	0.13	

SMILES	Ki (delta opioid receptor [2]; [4]) [µM]	Ki (mu opioid receptor) [µM]	Ki (delta opioid receptor [2]; [5]) [µM]	further results
COc1ccc(Oc2nc(Oc3cccc(OC)c3)ncc2NC[C@@H]2CCCN2)cc1 [Cpd 52]				GTPγS δ-opioid receptor Rel Efficacy (delta opioid receptor [1]): 0.935; GTPγS δ-Rel Efficacy @200 nM (delta opioid receptor [1]): 0.624; EC50 (delta opioid receptor [1]; GTPγS δ-opioid receptor EC50): 0.051 µM
COc1ccc(Oc2ncc(NCc3ccc(-n4ccnc4)cc3)c(Oc3ccc(OC)cc3)n2)cc1 [Cpd 37, [2,4-Bis-(4-methoxy-phenoxy)-pyrimidin-5-yl]-(4-imidazol-1-yl-benzyl)-amine]		> 10	2.7	
COc1ccc(Oc2ncc(NCC3CCCN3)c(Oc3ccc(OC)cc3)n2)cc1 (racemic) [Cpd 6]		1.84	0.0437	GTPγS δ-opioid receptor % Inh @10 μM (delta opioid receptor [3]): 12.502%
COc1ccc(Oc2ncc(NCCC3CCNCC3)c(Oc3ccc(OC)cc3)n2)cc1 [Cpd 33]	1.11	> 10		
COc1ccc(Oc2ncc(NC3CCCN(Cc4ccccc4)C3)c(Oc3ccc(OC)cc3)n2)cc1 (racemic) [Cpd 32]	0.876	> 10		
COc1ccc(Oc2nc(Oc3cccc(Cl)c3)ncc2NC[C@@H]2CCCN2)cc1 [Cpd 51]				GTPγS δ-opioid receptor Rel Efficacy (delta opioid receptor [1]): 1.040; GTPγS δ-Rel Efficacy @200 nM (delta opioid receptor [1]): 0.859; EC50 (delta opioid receptor [1]; GTPγS δ-opioid receptor EC50): 0.043 µM
CCN(CC)CCC(C)Nc1cnc(Oc2ccc(OC)cc2)nc1Oc1ccc(OC)cc1 (racemic) [Cpd 38]		> 10	3.09	
COc1ccc(Oc2ncc(NC[C@@H]3CCCN3C)c(Oc3ccc(OC)cc3)n2)cc1 [Cpd 9, [2,4-Bis-(4-methoxy-phenoxy)-pyrimidin-5-yl]-(1-methyl-pyrrolidin-2-(S)-ylmethyl)-amine]		9.29	0.115	
COc1ccc(Oc2ncc(NC3CC4CCC(C3)N4)c(Oc3ccc(OC)cc3)n2)cc1 (stereo not shown) [Cpd 11]		2.15	0.155	
COc1ccc(C=Cc2ncc(NC[C@@H]3CCCN3)c(Oc3ccc(OC)cc3)n2)cc1 [Cpd 19, {4-(4-Methoxyphenoxy)-2-[2-(4-methoxyphenyl)vinyl]-pyrimidin-5-yl}-pyrrolidin-2-(S)-ylmethylamine]	0.232	2.05		
COc1ccc(Oc2ncc(NC3CCNCC3)c(Oc3ccc(OC)cc3)n2)cc1 [Cpd 12]		15.2	0.174	
COc1ccc(Oc2nc(Oc3cc(F)cc(F)c3)ncc2NC[C@@H]2CCCN2)cc1 [Cpd 54]				GTPγS δ-Rel Efficacy @200 nM (delta opioid receptor [1]): 0.066
COc1ccc(Nc2ncc(NC[C@@H]3CCCN3)c(Oc3ccc(OC)cc3)n2)cc1 [Cpd 23, 4-(4-Methoxyphenoxy)-N^2-(4-methoxyphenyl)-N^6-pyrrolidin-2-(S)-ylmethyl-pyrimidine-2,5-diamine]	0.363	> 10		
COc1ccc(Oc2ncc(NCC3CNC3)c(Oc3ccc(OC)cc3)n2)cc1 [Cpd 13]		> 10	0.238	
COc1ccc(Oc2ncc(NCC3CCNC3)c(Oc3ccc(OC)cc3)n2)cc1 (racemic) [Cpd 22]	0.357	9.28		
COc1ccc(Oc2ncc(NC[C@H](N)CO)c(Oc3ccc(OC)cc3)n2)cc1 [Cpd 21, 2-(S)-Amino-3-[2,4-bis-(4-methoxy-phenoxy)-pyrimidin-5-ylamino]propan-1-ol]	0.348	> 10		
COc1ccc(Oc2ncc(NC3CCC(N)CC3)c(Oc3ccc(OC)cc3)n2)cc1 (stereo not shown) [Cpd 16]		3.86	0.455	
COc1ccc(Oc2ncc(NC3CCN(Cc4ccccc4)C3)c(Oc3ccc(OC)cc3)n2)cc1 (racemic) [Cpd 27, (1-Benzyl-pyrrolidin-3-yl)-[2,4-bis-(4-methoxy-phenoxy)-pyrimidin-5-yl]-amine]		3.57	1.02	
COc1ccc(Oc2ncc(CNC[C@@H]3CCCN3C)c(Oc3ccc(OC)cc3)n2)cc1 [Cpd 8]		7.16	0.0925	
